These results are taken from patent publication US20260158009A1 (GENZYME CORPORATION, priority 2023, published 2026).

In one assay the test system is U937 cells. Kind of assay: Cellular assay in U937 cells: activity of RIPK1 inhibitors on TNFα/zVAD.fmk-induced cell death (necroptosis), CellTiter 96 AQueous (MTS) readout. It counts as cell-based. As to conditions: Homo sapiens, U-937. An outline of the steps: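 Necroptosis was measured by viable-cell MTS reduction (4 h, absorbance 490 nm) after overnight (18–24 h) 37° C culture. Cell suspensions of U937 cells carried TNFα (100 ng/ml) plus zVAD.fmk (50 μM) before compound was added. A 10-point curve (10 μM–0.26 nM or 1 μM–0.07 nM) was run in duplicate, normalised to the control lacking TNFα/zVAD.fmk.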

Assay [1] has as its target T1, hRIPK1 (aa 1-375) fusion protein (Homo sapiens, UniProt Q13546).
T1 construct: hRIPK1 (aa 1-375) fusion protein
T1 sequence (Q13546 1-375): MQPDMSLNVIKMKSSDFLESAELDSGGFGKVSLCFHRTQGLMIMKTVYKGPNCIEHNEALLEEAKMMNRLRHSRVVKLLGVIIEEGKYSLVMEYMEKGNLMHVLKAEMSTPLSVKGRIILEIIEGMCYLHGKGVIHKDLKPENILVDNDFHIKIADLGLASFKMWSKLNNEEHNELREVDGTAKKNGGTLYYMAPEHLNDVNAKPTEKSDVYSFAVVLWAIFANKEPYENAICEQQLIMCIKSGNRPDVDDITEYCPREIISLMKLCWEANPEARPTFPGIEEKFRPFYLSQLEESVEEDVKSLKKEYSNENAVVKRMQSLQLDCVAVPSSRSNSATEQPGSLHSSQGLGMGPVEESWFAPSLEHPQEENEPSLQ
As to the kind of experiment: ADP-Glo kinase assay: catalytic activity of RIPK1 (autophosphorylation, conversion of ATP to ADP). It counts as biochemical. An outline of the steps:
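The readout was ADP-Glo luminescence after a 240 min rt autophosphorylation reaction with 50 μM ATP, following 30 min preincubation of 3.6 μg/ml hRIPK1 (aa 1-375) fusion with compound at 33300-1.69 nM final in 1% DMSO. Values came from Levenberg-Marquardt nonlinear fits.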
Background: In ADP-Glo the light output rises with the ADP produced.

Each structure is given as a SMILES string.

Consider `Cc1cc(C[C@H]2CC[C@H](C(=O)N3OCC[C@H]3c3cc(F)cc(C#N)c3)CC2)cn2c(C)nnc12` [compound 300, trans-3-[(3S)-2-[4-[(3,8-dimethyl-[1,2,4]triazolo[4,3-a]pyridin-6-yl)methyl]cyclohexanecarbonyl]-1,2-oxazolidin-3-yl]-5-fluorobenzonitrile], for which the IC50 in the assay on U937 cells was 13 nM; in assay [1], 19 nM.

As to `COc1cncc([C@@H]2CCON2C(=O)[C@H]2CC[C@H](Cn3ccc4ncc(C#N)cc43)CC2)n1` [compound 185, trans-1-[[4-[(3S)-3-(6-methoxypyrazin-2-yl)isoxazolidine-2-carbonyl]cyclohexyl]methyl]pyrrolo[3,2-b]pyridine-6-carbonitrile], the IC50 was found to be 34 nM in the assay with U937 cells and 32 nM in assay [1].

In the case of `Cc1cc(C[C@H]2CC[C@H](C(=O)N3OCC[C@H]3c3cnccn3)CC2)c(Cl)cn1` [compound 396, trans-[4-[(5-chloro-2-methylpyridin-4-yl)methyl]cyclohexyl]-[(3S)-3-pyrazin-2-yl-1,2-oxazolidin-2-yl]methanone], the results for the IC50 (in the assay with U937 cells; in assay [1]) were 4 nM and 14 nM, respectively.

For the compound `Cc1nc2cc(C[C@H]3CC[C@H](C(=O)N4OCC[C@H]4c4csc(C)n4)CC3)ccn2n1` [compound 372, trans-[(S)-3-(2-Methyl-thiazol-4-yl)-isoxazolidin-2-yl]-[4-(2-methyl-[1,2,4]triazolo[1,5-a]pyridin-7-ylmethyl)-cyclohexyl]-methanone], the IC50 in the assay with U937 cells amounted to 103 nM; in assay [1], 53 nM.

As for `N#Cc1cnc2cn(C[C@H]3CC[C@H](C(=O)N4OCC[C@H]4c4cc(F)cc(F)c4)CC3)nc2c1` [compound 25, trans-2-((4-((S)-3-(3,5-difluorophenyl)isoxazolidine-2-carbonyl)cyclohexyl)methyl)-2H-pyrazolo[4,3-b]pyridine-6-carbonitrile], the IC50 amounted to 154 nM in the assay with U937 cells and 68 nM in assay [1].

On to `Cn1ncc2ccc(C[C@H]3CC[C@H](C(=O)N4OCC[C@H]4c4cc(F)cc(F)c4)CC3)cc21` [compound 295, trans-[(3S)-3-(3,5-difluorophenyl)isoxazolidin-2-yl]-[4-[(1-methylindazol-6-yl)methyl]cyclohexyl]methanone], for which the IC50 was determined as 1 nM in the assay with U937 cells and 6 nM in assay [1].

`Cc1cc(C[C@H]2CC[C@H](C(=O)N3OCC[C@H]3c3ccc(F)cc3)CC2)cn2c(C)nnc12` [compound 319, trans-[4-[(3,8-dimethyl-[1,2,4]triazolo[4,3-a]pyridin-6-yl)methyl]cyclohexyl]-[(3S)-3-(4-fluorophenyl)isoxazolidin-2-yl]methanone]: the figures for the concentration for half-maximal inhibition (IC50) (in the assay on U937 cells; in assay [1]) were 33 nM and 14 nM, respectively.

`O=C([C@H]1CC[C@H](Cc2cc(F)cc(CO)c2)CC1)N1OCC[C@H]1c1cnccn1` [compound 259, trans-[4-[[3-fluoro-5-(hydroxymethyl)phenyl]methyl]cyclohexyl]-[(3S)-3-pyrazin-2-ylisoxazolidin-2-yl]methanone]: the IC50 came out at 2 nM in the assay with U937 cells and 8 nM in assay [1].

Regarding `CNC(=O)c1ccc(F)c(C[C@H]2CC[C@H](C(=O)N3OCC[C@H]3c3cc(F)cc(F)c3)CC2)c1` [compound 174, trans-3-[[4-[(3S)-3-(3,5-difluorophenyl)isoxazolidine-2-carbonyl]cyclohexyl]methyl]-4-fluoro-N-methyl-benzamide], the results for the IC50 (with U937 cells; in assay [1]) were 4 nM and 19 nM, respectively.

Regarding `Cc1cc(C[C@H]2CC[C@H](C(=O)N3OCC[C@H]3c3coc(C)n3)CC2)c(C)cn1` [compound 377, trans-[4-[(2,5-dimethylpyridin-4-yl)methyl]cyclohexyl]-[(3S)-3-(2-methyl-1,3-oxazol-4-yl)-1,2-oxazolidin-2-yl]methanone], the IC50 with U937 cells came to 36 nM; in assay [1], 35 nM.

Take `N#Cc1cc(F)cc([C@@H]2CCON2C(=O)[C@H]2CC[C@H](Cn3cnc4cc(C(N)=O)c(F)cc43)CC2)c1` [compound 74, trans-1-((4-((S)-3-(3-cyano-5-fluorophenyl)isoxazolidine-2-carbonyl)cyclohexyl)methyl)-6-fluoro-1H-benzo[d]imidazole-5-carboxamide]: the figures for the 50% inhibitory concentration (IC50) (with U937 cells; in assay [1]) were 106 nM and 28 nM, respectively.

`Cc1nn(C[C@H]2CC[C@H](C(=O)N3OCC[C@H]3c3cc(F)cc(F)c3)CC2)c2ccccc12` [compound 60, trans-((S)-3-(3,5-difluorophenyl)isoxazolidin-2-yl)(4-((3-methyl-1H-indazol-1-yl)methyl)cyclohexyl)methanone]: the 50% inhibitory concentration (IC50) was 5 nM with U937 cells and 14 nM in assay [1].

As to `O=C([C@H]1CC[C@H](Cn2cnc3ccccc32)CC1)N1OCC[C@H]1c1cncc(F)c1` [compound 9, trans-(4-((1H-benzo[d]imidazol-1-yl)methyl)cyclohexyl)((S)-3-(5-fluoropyridin-3-yl)isoxazolidin-2-yl)methanone], the results for the IC50 (in the assay on U937 cells; in assay [1]) were 174 nM and 113 nM, respectively.

For the compound `Cc1nn(C[C@H]2CC[C@H](C(=O)N3OCC[C@H]3c3cc(F)cc(C#N)c3)CC2)c2ccccc12` [compound 61, trans-3-fluoro-5-((S)-2-(4-((3-methyl-1H-indazol-1-yl)methyl)cyclohexane-1-carbonyl)isoxazolidin-3-yl)benzonitrile], the IC50 in the assay with U937 cells came to 11 nM; in assay [1] it was 23 nM.

Take `N#Cc1ccc2c(cnn2C[C@H]2CC[C@H](C(=O)N3OCC[C@H]3c3cnccn3)CC2)c1` [compound 218, trans-1-[[4-[(3S)-3-pyrazin-2-ylisoxazolidine-2-carbonyl]cyclohexyl]methyl]indazole-5-carbonitrile]: the IC50 in the assay on U937 cells was 13 nM; in assay [1], 20 nM.

For the compound `N#Cc1cc2ncn(C[C@H]3CC[C@H](C(=O)N4OCC[C@H]4c4cc(F)cc(F)c4)CC3)c2cc1F` [compound 10, trans-1-((4-((S)-3-(3,5-difluorophenyl)isoxazolidine-2-carbonyl)cyclohexyl)methyl)-6-fluoro-1H-benzo[d]imidazole-5-carbonitrile], the IC50 with U937 cells is 8 nM; in assay [1], 43 nM.

Regarding `Cc1ccc([C@@H]2CCON2C(=O)[C@H]2CC[C@H](Cc3cc(F)c4nc(C)nn4c3)CC2)cn1` [compound 341, trans-[4-[(8-fluoro-2-methyl-[1,2,4]triazolo[1,5-a]pyridin-6-yl)methyl]cyclohexyl]-[(3S)-3-(6-methylpyridin-3-yl)-1,2-oxazolidin-2-yl]methanone], the IC50 in the assay on U937 cells worked out at 114 nM; in assay [1], 81 nM.

`Cc1cc(C[C@H]2CC[C@H](C(=O)N3OCC[C@H]3c3cnc(C)c(F)c3)CC2)cnn1` [compound 398, trans-[(3S)-3-(5-fluoro-6-methylpyridin-3-yl)-1,2-oxazolidin-2-yl]-[4-[(6-methylpyridazin-4-yl)methyl]cyclohexyl]methanone]: the values for the IC50 (in the assay on U937 cells; in assay [1]) were 182 nM and 64 nM, respectively.

In the case of `Cc1nc2cc(F)ccc2n1C[C@H]1CC[C@H](C(=O)N2OCC[C@H]2c2cc(F)cc(C#N)c2)CC1` [compound 50, trans-3-fluoro-5-((S)-2-(4-((5-fluoro-2-methyl-1H-benzo[d]imidazol-1-yl)methyl)cyclohexane-1-carbonyl)isoxazolidin-3-yl)benzonitrile], the IC50 in the assay on U937 cells came out at 29 nM; in assay [1] it was 27 nM.

As to `Cc1nc2c(F)cc(C[C@H]3CC[C@H](C(=O)N4OCC[C@H]4c4cc(F)cc(C#N)c4)CC3)cn2n1` [compound 284, trans-3-fluoro-5-[(3S)-2-[4-[(8-fluoro-2-methyl-[1,2,4]triazolo[1,5-a]pyridin-6-yl)methyl]cyclohexanecarbonyl]isoxazolidin-3-yl]benzonitrile], the IC50 came to 34 nM in the assay on U937 cells and 17 nM in assay [1].

`O=C([C@H]1CC[C@H](Cc2ccc3ncnn3c2)CC1)N1OCC[C@H]1c1cnccn1` [compound 143, trans-[(3S)-3-pyrazin-2-ylisoxazolidin-2-yl]-[4-([1,2,4]triazolo[1,5-a]pyridin-6-ylmethyl)cyclohexyl]methanone]: the IC50 turned out to be 44 nM in the assay with U937 cells and 76 nM in assay [1].

As to `CNC(=O)c1ccc(F)c(C[C@H]2CC[C@H](C(=O)N3OCC[C@H]3c3ccc(F)cc3)CC2)c1` [compound 173, trans-4-fluoro-3-[[4-[(3S)-3-(4-fluorophenyl)isoxazolidine-2-carbonyl]cyclohexyl]methyl]-N-methyl-benzamide], the IC50 amounted to 17 nM with U937 cells and 18 nM in assay [1].

As for `Cc1ncc(F)cc1C[C@H]1CC[C@H](C(=O)N2OCC[C@H]2c2cc(F)cc(F)c2)CC1` [compound 182, trans-[(3S)-3-(3,5-difluorophenyl)isoxazolidin-2-yl]-[4-[(5-fluoro-2-methyl-3-pyridyl)methyl]cyclohexyl]methanone], the IC50 in the assay with U937 cells amounted to 1 nM; in assay [1], 22 nM.

For `N#Cc1cc(F)cc([C@@H]2CCON2C(=O)[C@H]2CC[C@H](Cc3cnccn3)CC2)c1` [compound 245, trans-3-fluoro-5-[(3S)-2-[4-(pyrazin-2-ylmethyl)cyclohexanecarbonyl]isoxazolidin-3-yl]benzonitrile], the IC50 came out at 16 nM in the assay on U937 cells and 17 nM in assay [1].

The term IC50 denotes the point on the concentration scale where inhibition reaches its midpoint. Low readings indicate greater potency in that assay, high ones weaker potency in that assay.
